Measured values published in US20180258404A1, “METHODS OF GENERATING NEPHRONS FROM HUMAN PLURIPOTENT STEM CELLS” (THE BRIGHAM AND WOMEN'S HOSPITAL, INC., priority 2015, published 2018).

Tests used:
[1] = tested on: human embryonic stem cells (hESCs; H9); assay: Induction of late primitive streak from hESCs with CHIR; type: cell-based; conditions: CHIR 8 μM over 4 days
Protocol: hPSCs grown on Geltrex were washed once with PBS (Life Technologies, #10010-049) and dissociated into single cells with Accutase ([…] Technologies, #07920). Cells were then plated at a density of 2-2.4×10^4 (H9) or 1-1.4×10^4 (HDF, 2C) cells/cm^2 onto 24-well tissue culture plates (TPP, #92024) coated with 1% Geltrex in ReproFF2 supplemented with the ROCK inhibitor Y27632 (10 μM) (TOCRIS, #1254) and FGF2 (10 ng/ml). After 72 hours, cells (50% confluent) were briefly washed in PBS and then cultured in basic differentiation medium consisting of Advanced RPMI 1640 (Life Technologies, #12633-020) and 1X L-GlutaMAX (Life Technologies, #35050-061) supplemented with CHIR99021 (8-10 μM) (TOCRIS, #4423) for 4 days to induce late primitive streak cells Noggin (5 ng/ml) was also used for hiPSC differentiation in addition to CHIR (10 μM). To induce posterior intermediate mesoderm, cells were then cultured in Advanced RPMI+1X L-GlutaMAX+activin (10 ng/mL) (R&D, #338-AC-050) for 3 days. For induction of nephron progenitor cells, the media was then changed to Advanced RPMI+1X L-GlutaMAX+FGF9 (10 ng/ml) (R&D, #273-F9-025/CF) for 7 days. CHIR (3 μM) was added to the media from day 9 to 11 of differentiation to induce renal vesicles. On day 14, cells were switched to the basic differentiation medium and cultured for an additional 7 to 14 days (total of 21 to 28 days). […]

NPCs = assay: Induction of pre-tubular aggregates and renal vesicles from nephron progenitor cells; type: cell-based, human
Protocol: hPSCs grown on Geltrex were washed once with PBS (Life Technologies, #10010-049) and dissociated into single cells with Accutase ([…] Technologies, #07920). Cells were then plated at a density of 2-2.4×10^4 (H9) or 1-1.4×10^4 (HDF, 2C) cells/cm^2 onto 24-well tissue culture plates (TPP, #92024) coated with 1% Geltrex in ReproFF2 supplemented with the ROCK inhibitor Y27632 (10 μM) (TOCRIS, #1254) and FGF2 (10 ng/ml). After 72 hours, cells (50% confluent) were briefly washed in PBS and then cultured in basic differentiation medium consisting of Advanced RPMI 1640 (Life Technologies, #12633-020) and 1X L-GlutaMAX (Life Technologies, #35050-061) supplemented with CHIR99021 (8-10 μM) (TOCRIS, #4423) for 4 days to induce late primitive streak cells Noggin (5 ng/ml) was also used for hiPSC differentiation in addition to CHIR (10 μM). To induce posterior intermediate mesoderm, cells were then cultured in Advanced RPMI+1X L-GlutaMAX+activin (10 ng/mL) (R&D, #338-AC-050) for 3 days. For induction of nephron progenitor cells, the media was then changed to Advanced RPMI+1X L-GlutaMAX+FGF9 (10 ng/ml) (R&D, #273-F9-025/CF) for 7 days. CHIR (3 μM) was added to the media from day 9 to 11 of differentiation to induce renal vesicles. On day 14, cells were switched to the basic differentiation medium and cultured for an additional 7 to 14 days (total of 21 to 28 days). The medium was replaced every 2 or 3 days. A variety of growth factors and small molecules were tested for differentiation.
hPSCs on day 9 of differentiation, which represents metanephric mesenchyme cells, were dissociated with Accutase and resuspended in the basic differentiation medium supplemented with CHIR (3 μM) and FGF9 (10 ng/mL), and placed in 96-well, round bottom, ultra-low attachment plates (Corning, #7007) at 1×10^5 cells per well. The plates were centrifuged at 1500 rpm for 15 seconds, and the cells then cultured at 37° C., 5% CO2 for 2 days. The medium was then changed to the basic differentiation medium supplemented with FGF9 10 ng/mL and cultured for 3 more days. […]

NPCs in 3D culture = assay: Growth factor and small molecule screening in 3D culture (LTL+ tubules); type: cell-based, human; conditions: added in 3D culture from day 10
Protocol: FIG. 10. Spontaneous differentiation of SIX2+ cells into nephrons and growth factor screening in 3D culture. (a) Staining with PAX8 and LHX1 in hESCs on day 10 of the differentiation. hESCs were differentiated with CHIR 8 µM for 4 days, activn 10 ng/ml for 3 days, and FGF9 10 ng/ml for 3 days. […] Scale bar: 50 μm. (b) Brighfield imaging for hESCs on day 10 and 21 of the differentiation. FGF9 was withdrawn on day 10, and cells were cultured in the basic medium by day 21. Scale bars: 50 μm. (c) Brightfield and immunocytochemistry for LTL and NPHS1 in hESCs on day 28 of the differentiation. Scale bar: 50 μm. (d) The protocol for growth factor screening. Cells were replated to 3D culture on day 10, and the listed growth factors and small molecules were tested. (e) The number of LTL+ tubules in the organoids. […] (f) Brightfield imaging of 3D co-culture with an ureteric bud cell sphere. Scale bar: 100 μm. (g) Whole-mountstaining for LTL in the organoids on day 16. Scale bar: 100 μm. (h) Immunohistochemistry of the organoids on day 16. Scale bars: 50 μm. LTL: lotus tetragonolobus lectin. NPHS1: Nephrin.
To test whether the formation of epithelial structures could be facilitated by 3D culture conditions, on day 10, at the time of FGF9 withdrawal, the Inventors replated NPCs in ultra-low-attachment, round-bottom 96-well plates and cultured them for 1 week. NPCs formed 3D spherical aggregates, one per 96-well, in suspension culture.

[2] = tested on: hPSC-derived renal vesicles; assay: Kidney development analysis (Notch inhibition) in kidney organoids; type: cell-based, human; conditions: DAPT 10 μM from day 14 to 21, 2D and 3D culture
Protocol: FIG. 6. Modeling kidney development and injury in kidney organoids. (a) Schematic for kidney development analysis and nephrotoxicity assay. (b) Representative images of immunohistochemistry in structures derived from hESCs treated with DAPT 10 μM from day 14 to 21. n=4. Notch inhibition suppressed proximal tubule formation. Scale bars: 50 μm. […] Scale bars: 50 μm. […] (d) A low magnification image of gentamicin-treated organoids. Scale bar: 100 μm. CDH1: Cadherin-1 (E-cadherin). PODXL: Podocalyxin-like (Podocalyxin). LTL: lotus tetragonolobus lectin. KIM-1: kidney injury molecule-1. (e) Real-time quantitative PCR of KIM-1 in kidney organoids treated with gentamicin at indicated doses. Data is expressed as mean+/−SEM (n=10). […] Scale bars: 50 μm.
FIG. 12. Kidney development analysis. (a) DAPT was used to suppress Notch signaling from day 14 to 21. (b) CDH1, PODXL and LTL expression on day 21 in cells derived from hESCs in 2D culture. Scale bars: 50 (c) Percentage of LTL+ nephron structures in control and DAPT-treated on day 21. The nephron number was counted as CDH1+ tubules from 10 fields (×20 magnification) of each sample (n=2). CDH1: Cadherin-1 (E-cadherin). PODXL: Podocalyxin-like (Podocalyxin). […]

ARPKD-iPS organoids = assay: ARPKD organoid cyst formation in 3D culture; type: cell-based, human; conditions: forskolin treatment, 96-well plates, 24 in 24 organoids
Description: FIG. 26. Autosomal recessive polycystic kidney disease (ARPKD), organoid in 3D culture. This was done in 96-well plates. Cyst formation was 100% (24 in 24 organoids) in ARPKD-iPS with forskolin treatment. PKHD1 mutants were generated with CRISPR. The cystic phenotype appear from very early stage (day 22˜), meaning high-scale drug screening can be done, since media change will be much less frequent.

[3] = tested on: 3D hESC-derived kidney organoids; assay: Nephrotoxicity assay in 3D kidney organoids; type: cell-based, human
Protocol: Organoids were then fixed with 4% paraformaldehyde (Electron Microscopy Sciences, #RT15710) for 20 minutes for both whole-mount and frozen section immunohistochemistry.
3D kidney organoids were fixed with 4% paraformaldehyde in PBS for 20 minutes at RT in a 96-well plate, then washed three times in PBS. The organoids were then incubated in blocking buffer (0.3% Triton X-100 and 5% normal donkey serum) for 1 hour at RT, then washed three times in PBS. The organoids were incubated with primary antibodies in antibody dilution buffer (0.3% Triton X-100 and 1% BSA in PBS) overnight at 4° C. The organoids were then washed with PBS three times for 1 hour each, with the third washing performed overnight at 4° C. For immunostaining with biotinylated LTL (Vector Labs, #B-1325), a Streptavidin/Biotin Blocking Kit (Vector Labs, #SP-2002) was used according to the manufacturer's protocol. The organoids were incubated with secondary antibodies in antibody dilution buffer for 1 hour at RT, then washed with PBS three times for 30 minutes each. Nuclei were counterstained with DAPI for more than 30 minutes. […]
Total RNA was purified from cells using the RNAeasy MiniKit (Qiagen). […] Quantitative RT-PCR was performed using the iQ5 Multicolor Real-Time PCR Detection System (Bio-Rad). […] Values were calculated by the delta delta CT method. […]

Description for podocytes: Modeling glomerular diseases. The Inventors used puromycin and adriamycin which is known to induce FSGS (focal-segmental glomerulosclerosis).

## Cc1c[nH]c(-c2cnc(NCCNc3ccc(C#N)cn3)nc2-c2ccc(Cl)cc2Cl)n1 [CHIR, CHIR99021]
[1]
  induction of T+TBX6+ primitive streak cells: robustly induced and maintained a population of T+TBX6+ primitive streak cells
NPCs; 3D culture from day 9, studied on day 14, versus basic medium (ARPMI)
  size of the organoids: increased the size of the organoids
NPCs; CHIR 3 μM for 2 days from day 9 with FGF9 days 7-14, 2D culture
  number of cells that downregulated SIX2 and co-expressed PAX8 and LHX1: markedly increased
NPCs; CHIR 3 μM for 2 days from day 9 with FGF9 days 7-14, 2D culture, day 14
  PAX8+LHX1+ differentiated cells by flow cytometry: ~75.9%
NPCs in 3D culture
  number of LTL+ tubules in the organoids: did not significantly increase the number of LTL+ tubules

## C[C@H](NC(=O)Cc1cc(F)cc(F)c1)C(=O)N[C@H](C(=O)OC(C)(C)C)c1ccccc1 [DAPT]
[2]
  proximal tubule formation: marked suppression of proximal tubule formation

## COc1cccc2c1C(=O)c1c(O)c3c(c(O)c1C2=O)C[C@@](O)(C(=O)CO)C[C@@H]3O[C@H]1C[C@H](N)[C@H](O)[C@H](C)O1 [adriamycin]
podocytes
  structures of podocytes: the structures of podocytes were disrupted

## C=C[C@@]1(C)CC(=O)[C@]2(O)[C@@]3(C)[C@@H](O)CCC(C)(C)[C@@H]3[C@H](O)[C@H](OC(C)=O)[C@@]2(C)O1 [forskolin]
ARPKD-iPS organoids
  cyst formation: 100%

## COc1ccc(C[C@H](N)C(=O)N[C@H]2[C@@H](O)[C@H](n3cnc4c(N(C)C)ncnc43)O[C@@H]2CO)cc1 [puromycin]
podocytes
  structures of podocytes: the structures of podocytes were disrupted

## gentamicin
[3]; gentamicin 5 mg/mL for 48 hours after day 21
  KIM-1 expression by immunostaining (whole mount and frozen sections): clear KIM-1 expression at the luminal surface of LTL+tubules but not in E-cadherin+ tubules
[3]; gentamicin 5×10^−4, 5×10^−2, or 5 mg/mL for 48 hours
  KIM-1 by real-time PCR: KIM-1 upregulation by gentamicin in a dose-dependent manner
